# Assay results published in ChEMBL document CHEMBL1201862, “PubChem BioAssay data set” (2004).
#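 Dose response: 5 concentrations. Exposure: 48 h. Format: 96-well plates. Endpoint: linear interpolation; highest concentration if not reached. At the GI50, growth is halved.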 Activity calls are given as the source filed them. Cut-off read from the data, not from the text of the source: active = GI50 up to about 1.1 µM and inactive = higher.
# Experiments:
# Assay in all cases: DTP human tumour cell line panel, 48 h
# M14 = system: M14
# RPMI-8226 = system: RPMI-8226
# SR = system: SR
# T47D = system: T47D
# A549 = system: A549
# SNB-75 = system: SNB-75
# SF-539 = system: SF-539
# Hs-578T = system: Hs-578T
# U-251 = system: U-251
# Malme-3M = system: Malme-3M
# EKVX = system: EKVX
# HCT-15 = system: HCT-15
# OVCAR-4 = system: OVCAR-4
# K562 = system: K562
# SK-MEL-5 = system: SK-MEL-5
# SK-OV-3 = system: SK-OV-3
# SN12C = system: SN12C
# MCF7 = system: MCF7
# CCRF-CEM = system: CCRF-CEM
# MDA-MB-435 = system: MDA-MB-435
SMILES,GI50 (M14),GI50 (RPMI-8226),GI50 (SR),GI50 (T47D),GI50 (A549),GI50 (SNB-75),GI50 (SF-539),GI50 (Hs-578T),GI50 (U-251),GI50 (Malme-3M),GI50 (EKVX),GI50 (HCT-15) [µM],GI50 (OVCAR-4),GI50 (K562),GI50 (SK-MEL-5),GI50 (SK-OV-3),GI50 (SN12C),GI50 (MCF7),GI50 (CCRF-CEM),GI50 (MDA-MB-435)
CC(C)(C)N/N=C(\C(=O)Nc1ccc([N+](=O)[O-])cc1[N+](=O)[O-])c1nc2ccc([N+](=O)[O-])cc2nc1O,> 100 µM (inactive),13.2 µM (inactive),31.3 µM (inactive),36.3 µM (inactive),> 100 µM (inactive),> 100 µM (inactive),> 100 µM (inactive),82.6 µM (inactive),> 100 µM (inactive),> 100 µM (inactive),> 100 µM (inactive),43.4,33.3 µM (inactive),37 µM (inactive),13.6 µM (inactive),> 100 µM (inactive),> 100 µM (inactive),79.6 µM (inactive),98.9 µM (inactive),> 100 µM (inactive)
COc1cc(C(=O)Oc2c(C(C)=O)sc3c2c(=O)n(-c2ccccc2)c(=S)n3-c2ccccc2)cc(OC)c1OC,16.9 µM (inactive),27 µM (inactive),> 100 µM (inactive),26.5 µM (inactive),28.9 µM (inactive),19.8 µM (inactive),11.6 µM (inactive),19.4 µM (inactive),20.7 µM (inactive),8.17 µM (inactive),18.7 µM (inactive),22.2,24.5 µM (inactive),33.6 µM (inactive),17.4 µM (inactive),31.6 µM (inactive),11.9 µM (inactive),19.5 µM (inactive),15.3 µM (inactive),22.5 µM (inactive)
Cc1c(-c2ccccc2)oc(=O)c2ccccc12,22.5 µM (inactive),16.7 µM (inactive),10.3 µM (inactive),30.5 µM (inactive),25 µM (inactive),12.4 µM (inactive),18.3 µM (inactive),17.1 µM (inactive),17.9 µM (inactive),21.7 µM (inactive),18.5 µM (inactive),19.8,17.5 µM (inactive),30.2 µM (inactive),18.5 µM (inactive),22.8 µM (inactive),17.7 µM (inactive),20.4 µM (inactive),18.4 µM (inactive),15.6 µM (inactive)
C=C1C(=O)O[C@@H]2C[C@@H](C)[C@@H]3C=CC(=O)[C@@]3(C)[C@@H](OC(=O)CCCC(=O)O[C@H]3[C@@H]4C(=C)C(=O)O[C@@H]4C[C@@H](C)[C@@H]4C=CC(=O)[C@]43C)[C@H]12,0.0217 µM (active),0.0107 µM (active),< 0.01 µM (active),0.0214 µM (active),1.63 µM (inactive),0.113 µM (active),0.0762 µM (active),0.104 µM (active),0.101 µM (active),0.0176 µM (active),0.0875 µM (active),0.0335,0.0455 µM (active),< 0.01 µM (active),0.134 µM (active),1.35 µM (inactive),0.0402 µM (active),0.0348 µM (active),< 0.01 µM (active),0.0167 µM (active)
CCOC(=O)C#Cc1cccc(C#CC(=O)OCC)c1,2.13 µM (inactive),4.71 µM (inactive),0.506 µM (active),42.3 µM (inactive),6.53 µM (inactive),0.0248 µM (active),5.14 µM (inactive),9.55 µM (inactive),4.71 µM (inactive),5.14 µM (inactive),1.14 µM (inactive),3.31,3.59 µM (inactive),1.91 µM (inactive),4.25 µM (inactive),7.55 µM (inactive),3.03 µM (inactive),5.62 µM (inactive),1.22 µM (inactive),4.59 µM (inactive)
CCOC(=O)C(NC(=O)c1ccccc1)(Nc1ccc(S(=O)(=O)Nc2nc(C)cc(C)n2)cc1)C(F)(F)F (stereo not given),> 100 µM (inactive),> 100 µM (inactive),> 100 µM (inactive),> 100 µM (inactive),> 100 µM (inactive),> 100 µM (inactive),> 100 µM (inactive),> 100 µM (inactive),> 100 µM (inactive),> 100 µM (inactive),> 100 µM (inactive),> 100,> 100 µM (inactive),> 100 µM (inactive),> 100 µM (inactive),0.778 µM (active),> 100 µM (inactive),> 100 µM (inactive),> 100 µM (inactive),> 100 µM (inactive)
COC1CCC(OS(C)(=O)=O)C(C)O1 (stereo not given),> 10 µM (inactive),> 10 µM (inactive),> 10 µM (inactive),> 10 µM (inactive),> 10 µM (inactive),> 10 µM (inactive),> 10 µM (inactive),> 10 µM (inactive),> 10 µM (inactive),> 10 µM (inactive),> 10 µM (inactive),> 10,> 10 µM (inactive),> 10 µM (inactive),> 10 µM (inactive),> 10 µM (inactive),> 10 µM (inactive),> 10 µM (inactive),> 10 µM (inactive),> 10 µM (inactive)
